Data: patent US10781212B2, “2,6-diamino pyridine compounds” (Eli Lilly and Company, priority 2018, dated 2020)

Tests used:
[1] = Pharmacokinetics in Beagle dogs; format: in vivo
Experimental: (§1) Liquid Chromatograph with Tandem Mass Spectrometry (LC-MS/MS) Method for Pharmacokinetic Assays: Samples are extracted using a protein precipitation by adding 180 μL of MeOH:ACN (1:1, v/v) containing an internal standard and 25 μL (rodent samples) or 50 μL(non-rodent samples) of plasma. Samples are then diluted with Methanol:Water (1:1, v/v) to get concentrations within standard curve range. Diluted samples are analyzed by LC-MS/MS using a Sciex API 4000 triple quadrupole mass spectrometer (Applied Biosystems/MDS; Foster City, Calif.) equipped with a TurbolonSpray interface, and operated in positive ion mode. The analytes are chromatographically separated using a Thermo Betasil C18 5 um 20×2.1 mm Javelin column (rodent samples) or Advantage ECHIELON C18 4 um 20 mm×2.1 mm ID column (non-rodent samples). LC conditions are Water/1 M ammonium bicarbonate, (2000:10, v/v) (Mobile Phase A), and MeOH/1 M ammonium bicarbonate, (2000:10, v/v) (Mobile Phase B).
Example 1 is administered by a single oral (PO; 3 mg/kg; volume of 2 mL/kg) or intravenous (IV; 1 mg/kg; volume of 1 mL/kg) dose in vehicle. Blood is collected from each animal at 0, 0.03 (IV group only), 0.08 (IV), 0.25, 0.5, 1, 2, 4, 8, 12, 24, 32 (IV), 48 (IV), and 72 (IV) h post-dosage. The plasma concentrations of Example 1 are determined by a LC-MS/MS method as described above.

OATP1B1 = OATP1B1 (Homo sapiens (Human), UniProt Q9Y6L6); test: Inhibition of OATP1B1 (rosuvastatin uptake); format: cell-based; details: rosuvastatin 400 nM substrate, 30 min pre-incubation
OATP1B1, sequence (Q9Y6L6 whole entry, species assumed): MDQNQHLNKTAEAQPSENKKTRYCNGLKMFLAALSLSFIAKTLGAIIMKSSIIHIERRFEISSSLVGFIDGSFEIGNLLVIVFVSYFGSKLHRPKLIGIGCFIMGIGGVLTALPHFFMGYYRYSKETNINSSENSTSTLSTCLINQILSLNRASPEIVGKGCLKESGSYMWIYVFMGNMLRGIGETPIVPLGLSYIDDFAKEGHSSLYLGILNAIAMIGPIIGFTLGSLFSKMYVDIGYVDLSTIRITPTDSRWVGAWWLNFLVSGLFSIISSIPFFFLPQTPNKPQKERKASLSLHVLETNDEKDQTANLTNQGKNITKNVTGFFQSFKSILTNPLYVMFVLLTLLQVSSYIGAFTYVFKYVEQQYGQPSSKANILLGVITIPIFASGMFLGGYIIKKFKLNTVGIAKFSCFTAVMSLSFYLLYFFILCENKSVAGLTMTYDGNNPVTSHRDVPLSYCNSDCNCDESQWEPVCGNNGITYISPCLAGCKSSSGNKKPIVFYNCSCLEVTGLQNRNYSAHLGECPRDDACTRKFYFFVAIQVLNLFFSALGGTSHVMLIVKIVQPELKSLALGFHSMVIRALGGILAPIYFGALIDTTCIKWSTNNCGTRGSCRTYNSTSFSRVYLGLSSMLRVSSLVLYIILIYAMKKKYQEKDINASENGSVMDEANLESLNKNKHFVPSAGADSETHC
Experimental: (§2) Inhibition of OATP1B1 and OATP1B3
(§3) The OATP1B1, OATP1B3, and vector control (VC) cells are grown in 5% CO2 at 37° C. in a humidified atmosphere in DMEM supplemented with 10% FBS, 50 μg/mL gentamycin, and 5 μg/mL blasticidin. The cells are seeded in 24-well BioCoat Poly-D-Lysine plates. The cells are treated with 5 mM sodium butyrate in supplemented DMEM 24 h prior to experimentation. Cell cultures are washed twice with pre-warmed PBS prior to experimentation. After washing, all cell types are incubated for 30 min at 37° C. in 200 μL buffer, buffer plus varying concentration of test article, or with appropriate positive control inhibitor. Based upon preliminary data concentrations from 0.025 to 12.5 μM for OATP1B1 and 0.20 to 100 μM for OATP1B3 (nominal) are tested. At the start of the preincubation, 50 µL of buffer is removed for determination of in-well test article concentrations by LC-MS/MS. Following the pre-incubation period, the buffer is removed. […] Samples are taken from each well from plates to count for radioactivity and protein concentration in each well is determined by bicinchoninic acid method. IC50 values are determined by fitting the data using GraphPad Prism. Nominal concentrations are converted to measured concentrations prior to fitting.

[2] = Pharmacokinetics in OATP1A/1B knockout mice; format: in vivo; details: OATP1A/1B knockout (Taconic #10707), mouse, IV 1 mg/kg
Experimental: as §1
(§4) Example 1 is administered by a single intravenous (IV; 1 mg/kg; volume of 1 mL/kg) dose in vehicle. Blood is collected from each animal at 0, 0.08, 0.25, 0.5, 1, 2, 4, 8, 12, and 24 h post-dosage. Liver, spleen, and pancreas is collected, weighed and perfused at 24 h post-dosage. The plasma and tissue concentrations of Example 1 are determined by a LC-MS/MS method as described above.

human KHK-C = human KHK-C (Homo sapiens (Human), UniProt P50053); test: KHK enzyme activity assay, human KHK-C; format: biochemical; details: fructose 250 μM, ATP 150 μM; read-out: hKHK-C IC50
human KHK-C, sequence (P50053 whole entry): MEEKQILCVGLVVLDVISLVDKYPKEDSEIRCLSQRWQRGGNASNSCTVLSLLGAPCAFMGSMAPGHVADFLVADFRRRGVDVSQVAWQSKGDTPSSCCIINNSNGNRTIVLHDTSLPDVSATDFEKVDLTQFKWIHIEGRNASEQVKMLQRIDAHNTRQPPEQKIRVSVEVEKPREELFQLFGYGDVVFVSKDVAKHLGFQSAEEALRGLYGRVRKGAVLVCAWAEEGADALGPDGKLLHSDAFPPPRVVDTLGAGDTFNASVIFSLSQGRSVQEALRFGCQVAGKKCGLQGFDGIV
Experimental: (§5) KHK Enzyme Activity Assay for Human KHK-C and Human KHK-A
(§6) Enzyme is prepared in assay buffer [50 mM 4-(2-hydroxyethyl)piperazine-1-ethanesulfonic acid (HEPES), 10 mM potassium chloride, 100 mM magnesium chloride, 2 mM tris(2-carboxyethyl)phosphine (TCEP), 0.01% n-octyl glucoside] and incubated with compounds at RT for 15 min. The reaction is carried out in 100 μL volumes containing substrate concentrations of fructose (250 μM for KHK-C assay and 1.25 mM for KHK-A assay) and ATP (150 μM for both isoforms); which are further incubated at RT for 20 min. The reaction is then halted by the addition of stop buffer; consisting of 0.2% formic acid and 1 μg/ml ^13C6-fructose-6-phosphate (^13C6-F6P) internal standard. […] RapidFire MS Analysis for Quantitation of F1P: […]
(§7) Solvent A, used for sample loading and washing, is 6 mM octylamine (Acros Organics 129495000) brought to pH 5.0 using acetic acid. […] Samples are sequentially analyzed by aspirating 10 μL onto the collection loop under vacuum directly from multiwell plates. […]
(§8) The triple quadrupole mass spectrometer is equipped with an ESI source and analytes are monitored using selected reaction monitoring (SRM) in negative mode [M−H]−. F1P is monitored at m/z 259.02/96.9 and ^13C6-fructose-6-phosphate is monitored at m/z 264.99/97. The area ratio values for F1P is calculated using ^13C6-fructose-6-phosphate as internal standard.

[3] = Pharmacokinetics in cynomolgus monkeys; format: in vivo; details: cynomolgus monkey, plasma, PO 10 mg/kg
Experimental: as §1
The compounds is administered by a single oral (PO; 10 mg/kg; volume of 5 mL/kg) dose in vehicle. Blood is collected from each animal at 0, 0.25, 0.5, 1, 2, 4, 8, 12, 24, 32, 48, and 72 h post-dosage. The plasma concentrations of Example 1 are determined by a LC-MS/MS method as described above.

[4] = Pharmacokinetics in FVB wild type mice; format: in vivo; details: mouse, IV 1 mg/kg
Experimental: as §1, §4

human hepatocytes = test: Intrinsic clearance in human hepatocytes (-/+ABT); format: in vitro ADME; details: with vs without ABT (pan-CYP450 inhibitor)
Experimental: Intrinsic Clearance in Human Hepatocytes (−/+ABT)
This method is intended to identify in vitro metabolic clearance by substrate depletion in hepatocytes. Incubation in the presence and absence of ABT, a pan-CYP450 enzyme inhibitor, is used to estimate the contribution of CYP-mediated metabolism. Cryopreserved human hepatocytes are thawed at 37° C., spun down and reconstituted in hepatocyte maintenance media to a density of 1×10^6 viable cells/mL. To a pre-warmed 96-well plate, 196 μL of the hepatocyte suspension is added to each well. The cells are pre-incubated with and without ABT as follows: for ABT pre-incubation, 2 μL of 100 mM ABT solution is added (2 μL of media without ABT is added to control samples), and the plate incubated at 37° C. for 30 min under constant shaking (˜600 rpm). Following, 2 μL of a 30 μM stock solution of test article is added and at 0, 15, 30, 60, 120, 240 min 20 μL aliquots are taken and quenched by transfer to ACN containing internal standard. Following centrifugation at 4000 rpm for 30 min, supernatant concentrations are determined by LC-MS/MS. Clearance is calculated from the slope of % compound remaining over time.

OATP1B3 = OATP1B3 (Homo sapiens (Human), UniProt Q9NPD5); test: Inhibition of OATP1B3 (rosuvastatin uptake); format: cell-based; details: rosuvastatin 400 nM substrate, 30 min pre-incubation
OATP1B3, sequence (Q9NPD5 whole entry, species assumed): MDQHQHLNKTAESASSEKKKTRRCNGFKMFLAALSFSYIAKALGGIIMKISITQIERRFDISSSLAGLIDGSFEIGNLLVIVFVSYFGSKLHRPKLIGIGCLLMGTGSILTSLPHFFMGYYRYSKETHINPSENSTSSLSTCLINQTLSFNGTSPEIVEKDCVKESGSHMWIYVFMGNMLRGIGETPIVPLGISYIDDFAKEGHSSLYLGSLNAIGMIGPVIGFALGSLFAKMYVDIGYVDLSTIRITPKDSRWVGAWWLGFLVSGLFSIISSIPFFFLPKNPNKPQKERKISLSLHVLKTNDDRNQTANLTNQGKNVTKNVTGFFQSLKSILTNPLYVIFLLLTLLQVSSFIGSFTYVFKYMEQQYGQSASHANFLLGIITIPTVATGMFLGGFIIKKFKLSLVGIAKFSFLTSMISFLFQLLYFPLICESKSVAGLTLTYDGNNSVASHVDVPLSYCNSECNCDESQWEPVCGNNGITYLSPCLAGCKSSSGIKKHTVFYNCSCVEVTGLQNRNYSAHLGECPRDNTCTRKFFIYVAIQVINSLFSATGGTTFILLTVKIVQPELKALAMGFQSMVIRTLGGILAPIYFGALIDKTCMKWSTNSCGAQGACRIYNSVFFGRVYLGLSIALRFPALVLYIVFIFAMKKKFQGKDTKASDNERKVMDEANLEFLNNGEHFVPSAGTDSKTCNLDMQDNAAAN
Experimental: as §2, §3

human KHK-A = human KHK-A (Homo sapiens (Human), UniProt P50053); test: KHK enzyme activity assay, human KHK-A; format: biochemical; details: fructose 1.25 mM, ATP 150 μM; read-out: hKHK-A IC50
human KHK-A, sequence (P50053 other isoform, or with tags, fused parts or gaps): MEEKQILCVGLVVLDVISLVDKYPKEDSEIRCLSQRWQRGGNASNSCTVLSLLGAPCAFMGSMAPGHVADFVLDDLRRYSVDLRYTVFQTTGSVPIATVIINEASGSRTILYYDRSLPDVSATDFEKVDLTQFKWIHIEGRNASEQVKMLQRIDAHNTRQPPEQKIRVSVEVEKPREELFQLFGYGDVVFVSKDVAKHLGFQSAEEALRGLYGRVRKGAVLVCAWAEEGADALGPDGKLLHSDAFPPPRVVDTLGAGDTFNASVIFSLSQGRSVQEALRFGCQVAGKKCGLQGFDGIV
Experimental: as §5, §6, §7, §8

[5] = Elimination pathways in bile duct cannulated Beagle dogs; format: in vivo; details: IV 1 mg/kg
Experimental: as §1
Example 1 is administered by a single intravenous (IV; 1 mg/kg; volume of 1 mL/kg) dose in vehicle. Blood is collected from each animal at 0, 0.033, 0.083, 0.25, 0.5, 1, 2, 4, 8, 12, 24, 32, 48 and 72 h post-dosage. Bile is collected from each animal at 1, 2, 3, 4, 5, 6, 12, 18, 24, 32, 48 and 72 h post-dosage. Urine is collected at 12, 24, 48, and 72 h and feces collected at 24, 48, and 72 h post-dosage. The plasma, bile, urine and feces concentrations of Example 1 are determined by a LC-MS/MS method as described above.

[6] = liver at 24 h, read-out: mean liver unbound partition coefficient (Kpuu)
[7] = plasma, 1 mg/kg, heading: mean clearance
[8] = plasma, read-out: volume of distribution

For C[C@H]1CCN1c1nc(N2CC[C@H](CC(=O)O)C2)cc(C(F)(F)F)c1C#N [Example 1, 2-[(3R)-1-[5-cyano-6-[(2S)-2-methylazetidin-1-yl]-4-(trifluoromethyl)-2-pyridyl]pyrrolidin-3-yl]acetic Acid], which mean half-life ([1]; IV 1 mg/kg) is on record?
Its mean half-life is 7.4 h.

What about the clearance ([1]; dog, plasma, 1 mg/kg, heading: mean clearance, IV 1 mg/kg) of the same molecule?
The clearance was 0.151 L/h/kg.

And the half-life ([1]; dog, plasma, IV 1 mg/kg)?
The half-life was 7.4 h.

And the Vd ([1]; dog, plasma, IV 1 mg/kg, read-out: volume of distribution)?
The Vd was 1.33 L/kg.

What about the bioavailability ([1]; dog, plasma, PO 3 mg/kg) of the same molecule?
The bioavailability was about 93%.

And the half-life ([1]; dog, plasma, PO 3 mg/kg)?
Its half-life is 6.9 h.

And the IC50 (OATP1B1)?
Its IC50 is 0.12 µM.

And the Kp uu at 24 h [2, 6]?
The Kp uu at 24 h was 24.2.

And the clearance [2, 7]?
Its clearance is 0.0804 L/h/kg.

And the half-life ([2]; plasma)?
Its half-life is 9.36 h.

And the Vd [2, 8]?
Its Vd is 0.986 L/kg.

And the IC50 (human KHK-C)?
Its IC50 is 0.009 µM.

And the half-life [3]?
The half-life was 15.3 h.

What about the Kp uu at 24 h [4, 6] of the same molecule?
The Kp uu at 24 h was 67.5.

What about the clearance [4, 7] of the same molecule?
The clearance was 0.415 L/h/kg.

And the half-life ([4]; plasma)?
Its half-life is 5.43 h.

What about the Vd [4, 8] of the same molecule?
The Vd was 2.74 L/kg.

What about the “inhibition of clearance by ABT” value (human hepatocytes) of the same molecule?
Its value is about 12%.

And the IC50 (OATP1B3)?
The IC50 was 5.5 µM.

And the IC50 (human KHK-A)?
Its IC50 is 0.019 µM.

What about the “administered IV dose recovered in bile” value [5] of the same molecule?
Its value is about 10%.

What about the urine levels [5] of the same molecule?
Its urine levels is “negligible”.

And the clearance ([5]; dog, plasma, 1 mg/kg, heading: mean clearance)?
The clearance was 0.281 L/h/kg.

And the half-life ([5]; dog, plasma)?
Its half-life is 2.9 h.

And the Vd ([5]; dog, plasma, read-out: volume of distribution)?
Its Vd is 0.546 L/kg.

Which results are given for C[C@H]1CCN1c1nc(N2CC(CC(=O)O)C2)cc(C(F)(F)F)c1C#N [Example 2, 2-[1-[5-cyano-6-[(2S)-2-methylazetidin-1-yl]-4-(trifluoromethyl)-2-pyridyl]azetidin-3-yl]acetic Acid]?
IC50 (human KHK-C): 0.027 µM; IC50 (human KHK-A): 0.037 µM
